PubChem BioAssay AID2060890 (Molecular Pharmacology Branch, DTP, NCI, 2025)

Test system: LG0703-F948-PDC complex spheroid viability
Experiment: Anticancer human tumor LG0703-F948-PDC patient-derived lung adenocarcinoma cell line growth inhibition [RAS]
Settings: for IC50: curve of first compound; for viability, T/C: stronger effect = lower value
Text: RAS pathway inhibitors in Combinations in Complex Spheroids
A high-throughput screen of multi-cell type tumor spheroids was designed to identify active combinations of RAS pathway inhibitors and targeted small molecules. Complex spheroids include a stromal component modeled by human endothelial cells (HUVEC) and fibroblasts modeled by human mesenchymal stem cells (MSCs). The concentration ranges selected for each drug and investigational agent were based upon clinically achievable concentrations if the clinical Cmax of the agent was known.
Compounds. The drugs and investigational agents: abemaciclib (NSC768073), cobimetinib (NSC768068), divarasib (GDC6063, NSC841802), docetaxel (NSC628503), GDC-1971 (RLY-1971, NSC841576), gemcitabine (NSC613327), inavolisib (NSC800729), ipatasertib (NSC767898), KB-0742 (NSC834161), MRTX-1133 (NSC836407), osimertinib (NSC779217), RMC-4630 (NSC839698), RMC-6236 (NSC851965), RMC-6291 (NSC852671), Ro-3306 (NSC812927), sapanisertib (NSC764658), SN-38 (NSC673596), staurosporine (NSC755774), SY5609 (NSC837396), and tovorafenib (DAY101, NSC766906), were obtained from the National Cancer Institute (NCI) Developmental Therapeutics Program Chemical Repository. The FDA-approved anticancer drug set is available from the NCI Developmental Therapeutics Program. […] The stock solutions were prepared in dimethyl sulfoxide (DMSO, Sigma-Aldrich, St. Louis, MO, cat. D2650) at 800-fold the tested concentration and stored at -70 degrees C prior to their use. All drugs and investigational agents were tested over a range starting from a high concentration at or near the clinical Cmax and decreasing in half-log increments. If the clinical Cmax for an agent had not been determined, the highest concentration tested was 10 microM.
Cell Culture. All cells were maintained in an incubator at 37 degrees C and 5% CO2 with 95% humidity. The PDC lines were cultured according to standard operating procedures established by the NCI PDMR. All PDCs were thawed and cultured in Matrigel-coated flasks prepared with a working solution of 1X Ham's F-12 nutrient mix, without supplementation (Invitrogen, Waltham, MA, cat. 11765054), 100 U/mL penicillin-streptomycin (Invitrogen, cat. 15140122), and 2.5% Matrigel (Corning Inc., Corning, NY, cat. 354248) for the first three passages. The 362531-283-R-J2-PDC and 782815-120-R-J1-PDC lines were cultured in 6C/Colon 1B media, which includes advanced DMEM/F-12 (Thermo Fisher Scientific, cat. 12634028), 10 mM HEPES (Thermo Fisher Scientific, cat. 15630080), 1X GlutaMAX supplement (Thermo Fisher Scientific, cat. 35050061), 0.1 mg/mL primocin (InvivoGen, San Diego, CA, cat. ant-pm-2), 10% defined fetal bovine serum, heat inactivated (HyClone Laboratories Inc., Logan, UT, cat. SH30070.03HI), 50% L-WRN conditioned media (ATCC, cat. CRL-3276), 1.25 mM N-Acetyl-L-cysteine (Sigma-Aldrich, cat. A9165), 10 mM nicotinamide (Sigma-Aldrich, cat. N0636), 1X B-27 supplement (Thermo Fisher Scientific, cat. 17504044), 1X N-2 supplement (Thermo Fisher Scientific, cat. 17502048), 50 ng/mL human EGF (Thermo Fisher Scientific, cat. PHG0311), and 10 microM Y-27632 dihydrochloride (Tocris Bioscience, cat. 1254). The K12877-001-R-J1-PDC line was cultured in 6I media, which includes all 6C/Colon 1B media plus 10 ng/mL human FGF-10 (PeproTech, cat. 100-26), 1 ng/mL human FGF-2 (PeproTech, cat. 100-18B), 1 µM prostaglandin E2 (Tocris Bioscience, cat. 2296), […] hydrocortisone (Sigma-Aldrich, cat. H4001), and […] bovine insulin (Sigma-Aldrich, cat. I6634). The K86415-001-R-J1-PDC line was cultured in 6D media, which includes all 6C/Colon 1B media components minus the L-WRN conditioned media. The 485176-168-R4-J1-PDC was cultured in PANC media, which includes all 6C/Colon 1B media plus 100 ng/mL human FGF-10 (PeproTech, cat. 100-26), 500 nM SB-431542 (Selleckchem, cat. S1067), and 10 nM gastrin (Tocris Bioscience, cat. 3006). […]

[1] = second compound 0.000949 µM, first compound 0.00316 µM
[2] = second compound 0.000949 µM, first compound 0.01 µM
[3] = second compound 0.000949 µM, first compound 0.0316 µM
[4] = second compound 0.000949 µM, first compound 0.1 µM
[5] = second compound 0.000949 µM, first compound 0.316 µM
[6] = second compound 0.000949 µM, first compound 1 µM
[7] = second compound 0.003 µM, first compound 0.00316 µM
[8] = second compound 0.003 µM, first compound 0.01 µM
[9] = second compound 0.003 µM, first compound 0.0316 µM
[10] = second compound 0.003 µM, first compound 0.1 µM
[11] = second compound 0.003 µM, first compound 0.316 µM
[12] = second compound 0.003 µM, first compound 1 µM
[13] = second compound 0.00949 µM, first compound 0.00316 µM
[14] = second compound 0.00949 µM, first compound 0.01 µM
[15] = second compound 0.00949 µM, first compound 0.0316 µM
[16] = second compound 0.00949 µM, first compound 0.1 µM
[17] = second compound 0.00949 µM, first compound 0.316 µM
[18] = second compound 0.00949 µM, first compound 1 µM
[19] = second compound 0.03 µM, first compound 0.00316 µM
[20] = second compound 0.03 µM, first compound 0.01 µM
[21] = second compound 0.03 µM, first compound 0.0316 µM
[22] = second compound 0.03 µM, first compound 0.1 µM
[23] = second compound 0.03 µM, first compound 0.316 µM
[24] = second compound 0.03 µM, first compound 1 µM
[25] = second compound 0.0949 µM, first compound 0.00316 µM
[26] = second compound 0.0949 µM, first compound 0.01 µM
[27] = second compound 0.0949 µM, first compound 0.0316 µM
[28] = second compound 0.0949 µM, first compound 0.1 µM
[29] = second compound 0.0949 µM, first compound 0.316 µM
[30] = second compound 0.0949 µM, first compound 1 µM
[31] = second compound 0.3 µM, first compound 0.00316 µM
[32] = second compound 0.3 µM, first compound 0.01 µM
[33] = second compound 0.3 µM, first compound 0.0316 µM
[34] = second compound 0.3 µM, first compound 0.1 µM
[35] = second compound 0.3 µM, first compound 0.316 µM
[36] = second compound 0.3 µM, first compound 1 µM
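Throughout, for viability, T/C: 100% = DMSO vehicle wells.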

Nc1ccn(C2OC(CO)C(O)C2(F)F)c(=O)n1 (centres undefined) + CCn1c(-c2cc(N3CCN(C)CC3)cnc2C(C)OC)c2c3cc(ccc31)-c1csc(n1)CC(NC(=O)C1CC1C)C(=O)N1CCCC(N1)C(=O)OCC(C)(C)C2
IC50 (second compound 0.000949 µM): 6.69 nM | IC50 (second compound 0.003 µM): < 3.16 nM | IC50 (second compound 0.00949 µM): < 3.16 nM | IC50 (second compound 0.03 µM): < 3.16 nM | IC50 (second compound 0.0949 µM): < 3.16 nM | IC50 (second compound 0.3 µM): < 3.16 nM | viability, T/C [1]: 65.9% | viability, T/C [2]: 42.5% | viability, T/C [3]: 33.1% | viability, T/C [4]: 40.5% | viability, T/C [5]: 39.5% | viability, T/C [6]: 36.2% | viability, T/C [7]: 46.4% | viability, T/C [8]: 31.9% | viability, T/C [9]: 34.1% | viability, T/C [10]: 28.7% | viability, T/C [11]: 29.6% | viability, T/C [12]: 32.8% | viability, T/C [13]: 22.8% | viability, T/C [14]: 18.3% | viability, T/C [15]: 17.4% | viability, T/C [16]: 13.7% | viability, T/C [17]: 19.2% | viability, T/C [18]: 18.3% | viability, T/C [19]: 10.1% | viability, T/C [20]: 11.4% | viability, T/C [21]: 15.6% | viability, T/C [22]: 14.2% | viability, T/C [23]: 14.9% | viability, T/C [24]: 10.5% | viability, T/C [25]: 12.6% | viability, T/C [26]: 8.4% | viability, T/C [27]: 9.27% | viability, T/C [28]: 9.86% | viability, T/C [29]: 8.62% | viability, T/C [30]: 8.16% | viability, T/C [31]: 10.5% | viability, T/C [32]: 7.77% | viability, T/C [33]: 11% | viability, T/C [34]: 6.54% | viability, T/C [35]: 6.46% | viability, T/C [36]: 5.98%

C=CC(=O)N1CCN(c2nc(OCC3CCCN3C)nc3c(F)c(-c4nc(N)cc(C)c4C(F)(F)F)c(Cl)cc23)C(C)C1 (centres undefined) + CCn1c(-c2cccnc2C(C)OC)c2c3cc(ccc31)N1CCOC(CC(NC(=O)C(C(C)C)N(C)C(=O)C3(F)CCN(C(=O)C#CC(C)(C)N(C)C)CC3)C(=O)N3CCCC(N3)C(=O)OCC(C)(C)C2)C1
IC50 (second compound 0.000949 µM): > 1000 nM | IC50 (second compound 0.003 µM): > 1000 nM | IC50 (second compound 0.00949 µM): > 1000 nM | IC50 (second compound 0.03 µM): > 1000 nM | IC50 (second compound 0.0949 µM): > 1000 nM | IC50 (second compound 0.3 µM): < 3.16 nM | viability, T/C [1]: 91.1% | viability, T/C [2]: 92.5% | viability, T/C [3]: 90.4% | viability, T/C [4]: 88% | viability, T/C [5]: 89.5% | viability, T/C [6]: 116% | viability, T/C [7]: 95.5% | viability, T/C [8]: 85.6% | viability, T/C [9]: 99.5% | viability, T/C [10]: 87.7% | viability, T/C [11]: 80.7% | viability, T/C [12]: 89.6% | viability, T/C [13]: 89.6% | viability, T/C [14]: 95.1% | viability, T/C [15]: 88.4% | viability, T/C [16]: 99% | viability, T/C [17]: 101% | viability, T/C [18]: 87.3% | viability, T/C [19]: 91.1% | viability, T/C [20]: 89.3% | viability, T/C [21]: 78.1% | viability, T/C [22]: 92.6% | viability, T/C [23]: 107% | viability, T/C [24]: 81.6% | viability, T/C [25]: 78.2% | viability, T/C [26]: 79.1% | viability, T/C [27]: 76.7% | viability, T/C [28]: 85.3% | viability, T/C [29]: 77.3% | viability, T/C [30]: 77.4% | viability, T/C [31]: 51.9% | viability, T/C [32]: 47.8% | viability, T/C [33]: 47.7% | viability, T/C [34]: 44.4% | viability, T/C [35]: 59.9% | viability, T/C [36]: 50.5%
